Measurements: PMC9503112, “Synthesis, Molecular Docking, In Vitro and In Vivo Studies of Novel Dimorpholinoquinazoline-Based Potential Inhibitors of PI3K/Akt/mTOR Pathway” (International Journal of Molecular Sciences, 2022)

How the values were obtained:
[1] = tested on: MCF7 breast cancer cells; set-up: method as in PMID 32825760; conditions: read-out: Concentration causing 50% suppression of MCF7 cell growth; cited from earlier work
[2] = tested on: MCF7; assay: Antiproliferative activity, MTT assay; format: cell-based; conditions: Homo sapiens, 72 h, standard deviations within 50%
Description: (§1) Human breast cancer MCF7, MDA-MB-231, SkBr-3 (purchased from the ATCC collection), human keratinocytes HaCaT, murine fibroblasts L929 and macrophages J774 cells (Collection of Shemyakin-Ovchinnikov Institute of Bioorganic Chemistry RAS) were cultured in standard DMEM or RPMI-1640 medium (ThermoScientific, Waltham, MA, USA) supplemented with 10% fetal bovine serum (FBS, Cytiva, Marlborough, MA, USA) at 37 °C, 5 % CO2 and 80–85% humidity (NuAir CO2 incubator). The cell growth was evaluated by MTT (3-[4,5-dimethylthiazol-2-yl]-2,5-diphenyltetrazolium bromide) test. Cells were seeded at a density of 5 × 10^3 cells per well in 96-well flat-bottomed plates (TPP). The compounds were dissolved in DMSO (AppliChem) to 10 mM before the experiments, and then the resulting solutions were diluted by the medium to the required concentrations. Solutions of the tested compounds with different concentrations in 100 μL of the medium were added and the cells were grown for 72 h. MTT (10 μL/well, 5 mg/mL) was added for the final 3 h. The formazan purple crystals were dissolved in DMSO (100 μL per well). The absorbance of solutions was measured at 540 nm with a MultiScan reader (ThermoFisher). Results were analyzed by Excel package (Microsoft). The inhibition of proliferation (inhibitory index) was calculated as [1–(ODexperiment/ODcontrol)], where OD was MTT optical density. IC50 (Table 1) was determined as the concentration giving 50% of inhibition in the comparison with it […].

[3] = tested on: MDA-MB-231; assay: Antiproliferative activity, MTT assay; format: cell-based, human; conditions: Homo sapiens, MDA-MB-231; MTT, 72 h; standard deviations within 50%
Description: as §1

[4] = tested on: fibroblasts L929; assay: Antiproliferative activity, MTT assay; format: cell-based, murine; conditions: Mus musculus, 72 h, standard deviations within 50%
Description: as §1

[5] = tested on: macrophages J774; assay: Antiproliferative activity, MTT assay; format: cell-based, murine; conditions: Mus musculus, 72 h, standard deviations within 50%
Description: as §1

[6] = tested on: keratinocytes HaCaT; assay: Antiproliferative activity, MTT assay; format: cell-based; conditions: Homo sapiens, 72 h, standard deviations within 50%
Description: as §1

[7] = target: T1, recombinant PI3K (p110α/p85α) (Homo sapiens, UniProt P42336); assay: PI3K inhibition assay (HTRF); format: biochemical; conditions: FRET/HTRF detection; approximate; read-out: IC50 PI3Kα
T1 construct: purchased Millipore 14-602
Description: The PI 3-Kinase (Class I) HTRF Assay Kit (Cat# 33-016 from Millipore) was used to determine the activity of recombinant PI3K (p110α/p85α) human (Cat# 14-602 from Millipore). The kit was supplemented with ATP (Cat# A26209 from Sigma-Aldrich, St. Louis, MI, USA), DL-dithiothreitol (Cat# S-[…]-1 from Sigma-Aldrich), and Wortmannin inhibitor (Cat# 12-338 from Millipore, Burlington, MA, USA). The latter was used at 0.1 μM concentration. For measurements, a Victor ×5 plate reader (PerkinElmer, 2030, Waltham, MA, USA) was used in TRF mode with excitation at 340 nm. Fluorescence emission was recorded at 613 and 670 nm in a 384-well plate (Cat# S-CLS3658 from Sigma-Aldrich) at a time interval of 150-350 μs. The enzymatic reaction and the determination of its products were carried out according to the recommendations of the reagent kit manufacturer (Millipore) in two wells for each sample. In calculations, readings in parallel wells were averaged. The calculations were made according to the recommendations of the equipment manufacturer.

[8] = tested on: SkBr-3 cells; assay: Cell cycle analysis (PI-stained DNA, flow cytometry); format: cell-based, human
Description: The cell cycle was analyzed using PI-stained DNA. Cells from the compounds 7 treated cultures were collected at 24, 48, and 72 h, trypsinized, washed in ice-cold PBS, fixed by the addition of 70% ethanol and left for 2 h at −20 °C. Thereafter, the cells were washed twice in PBS, stained with 50 μg/mL of propidium iodide (Sigma, Merck KGaA, Darmstadt, Germany) in PBS, treated with 10 µg/mL of RNAse and analyzed by flow cytometry using FACScan device (BD, USA). A total of 2000 events were collected. The results were analyzed using FlowJo 10 software (BD, Franklin Lakes, NJ, USA).

[9] = tested on: PI3K/Akt/mTOR signaling pathway in MCF7 cells; assay: Immunoblotting of PI3K/Akt/mTOR phosphorylation; format: cell-based, human; conditions: 500 nM
Description: MCF7 cells were seeded onto 100 mm dishes (Corning) and cultivated for 24 h. Compound 7c was added at different concentrations while the reference compound wortmannin (Selleckchem, Houston, TX, USA) was used at 500 nM. The cells were harvested after 72 h of growth with the compounds. To prepare cell extracts, MCF7 cells were twice washed in phosphate buffer and incubated for 10 min on ice in the modified lysis buffer containing 50 mM Tris-HCl, pH 7.5, 0.5% Igepal CA-630, 150 mM NaCl, 1 mM EDTA, 1 mM DTT, 1 mM PMSF, 0.1 mM sodium orthovanadate and aprotinin, leupeptin, pepstatin (1 µg/mL each). The protein content was determined by the Bradford method. Cell lysates were separated in 10% SDS-PAGE under reducing conditions, transferred to a nitrocellulose membrane (GE HealthCare, Chicago, IL, USA), and processed according to a standard protocol. To prevent nonspecific absorption, the membranes were treated with 5% nonfat milk solution in TBS buffer (20 mM Tris, 500 mM NaCl, pH 7.5) with 0.1% Tween-20 and then incubated with primary antibodies (Cell Signaling Technology, Danvers, MA, USA) overnight at 4 °C. […] Signals were detected using the ECL reagent using the ImageQuant LAS4000 system (GE HealthCare, Chicago, IL, USA).
The signals of phospho-proteins to total ones were calculated using the ImageJ program from inverted images of the bands.

T1 sequence (P42336 whole entry): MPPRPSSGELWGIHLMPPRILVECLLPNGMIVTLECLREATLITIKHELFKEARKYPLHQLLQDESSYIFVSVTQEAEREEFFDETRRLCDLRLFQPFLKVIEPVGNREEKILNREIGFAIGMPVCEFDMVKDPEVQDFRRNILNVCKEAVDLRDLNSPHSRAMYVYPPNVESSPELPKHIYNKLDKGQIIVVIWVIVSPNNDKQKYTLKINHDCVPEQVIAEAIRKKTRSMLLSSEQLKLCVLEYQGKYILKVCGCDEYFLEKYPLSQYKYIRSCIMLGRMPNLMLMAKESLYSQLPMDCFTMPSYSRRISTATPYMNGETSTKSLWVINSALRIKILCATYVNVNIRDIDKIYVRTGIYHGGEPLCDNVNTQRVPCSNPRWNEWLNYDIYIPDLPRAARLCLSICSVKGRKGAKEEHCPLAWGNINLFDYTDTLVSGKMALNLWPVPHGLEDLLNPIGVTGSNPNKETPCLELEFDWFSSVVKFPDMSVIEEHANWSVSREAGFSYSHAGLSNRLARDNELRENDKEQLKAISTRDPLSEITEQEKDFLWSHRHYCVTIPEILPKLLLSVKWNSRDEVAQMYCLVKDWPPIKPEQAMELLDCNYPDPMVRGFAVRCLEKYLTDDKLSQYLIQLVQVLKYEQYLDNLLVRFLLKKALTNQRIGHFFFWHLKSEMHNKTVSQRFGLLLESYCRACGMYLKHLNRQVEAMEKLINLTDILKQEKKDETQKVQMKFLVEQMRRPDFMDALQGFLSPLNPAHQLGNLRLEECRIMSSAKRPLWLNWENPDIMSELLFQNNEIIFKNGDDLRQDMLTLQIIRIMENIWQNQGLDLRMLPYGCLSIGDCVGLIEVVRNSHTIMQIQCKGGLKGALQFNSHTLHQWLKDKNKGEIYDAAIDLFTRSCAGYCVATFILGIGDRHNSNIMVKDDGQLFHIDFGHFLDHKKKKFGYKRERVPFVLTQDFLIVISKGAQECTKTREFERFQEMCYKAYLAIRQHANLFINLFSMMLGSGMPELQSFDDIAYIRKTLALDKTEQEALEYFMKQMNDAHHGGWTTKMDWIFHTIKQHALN
T1 sequence (P27986 whole entry partner): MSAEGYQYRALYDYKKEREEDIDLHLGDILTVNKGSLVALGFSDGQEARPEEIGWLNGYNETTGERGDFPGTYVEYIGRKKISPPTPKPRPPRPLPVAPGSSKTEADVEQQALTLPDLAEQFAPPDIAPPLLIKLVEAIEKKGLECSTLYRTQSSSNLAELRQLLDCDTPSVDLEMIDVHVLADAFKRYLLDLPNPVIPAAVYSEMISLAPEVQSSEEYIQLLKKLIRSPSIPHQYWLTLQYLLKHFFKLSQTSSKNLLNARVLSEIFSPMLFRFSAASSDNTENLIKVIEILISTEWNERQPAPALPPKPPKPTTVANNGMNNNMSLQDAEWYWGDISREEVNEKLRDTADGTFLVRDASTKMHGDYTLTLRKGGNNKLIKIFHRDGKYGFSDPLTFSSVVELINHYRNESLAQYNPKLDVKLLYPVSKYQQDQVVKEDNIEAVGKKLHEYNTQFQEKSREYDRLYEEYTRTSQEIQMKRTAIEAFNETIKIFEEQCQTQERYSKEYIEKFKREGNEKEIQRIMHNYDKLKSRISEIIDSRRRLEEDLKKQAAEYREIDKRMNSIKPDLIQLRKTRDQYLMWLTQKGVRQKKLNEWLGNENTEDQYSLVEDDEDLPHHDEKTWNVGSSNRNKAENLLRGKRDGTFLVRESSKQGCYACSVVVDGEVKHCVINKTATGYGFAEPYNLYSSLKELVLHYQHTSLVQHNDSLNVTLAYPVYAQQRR

SMILES | IC50 [2] [µM] | melting point [°C] | IC50 [3] [µM] | IC50 [7] [µM] | IC50 [1] [µM] | IC50 [4] [µM] | IC50 [5] [µM] | IC50 [6] [µM] | Concentration above which all cells died [8] | Concentration below which no changes in the cell cycle were found [8] | Effect on PI3K/Akt/mTOR signaling pathway [9]
CN(C)C(=N)N=C(N)N [MF, metformin] |  |  |  |  | 5800 |  |  |  |  |  | 
O=C(Nc1ccc(-c2ccc3c(N4CCOCC4)nc(N4CCOCC4)nc3c2)cc1)NC1CC1 [Compound 7d, 1-Cyclopropyl-3-(4-(2,4-dimorpholinoquinazolin-7-yl)phenyl)urea] | 5.2 | 83 to 85 | 10.5 |  |  |  |  |  |  |  | 
COc1ccc(CNC(=O)Nc2ccc(-c3ccc4c(N5CCOCC5)nc(N5CCOCC5)nc4c3)cc2)cc1 [Compound 7b, 1-(4-(2,4-Dimorpholinoquinazolin-7-yl)phenyl)-3-(4-methoxybenzyl)urea] | 1.1 |  | 1.7 | ~50 |  | 12 | 1.6 | 0.8 | higher than 10 μM | below 1 μM | 
N[C@@H](CCCCNC(=O)Nc1ccc(-c2ccc3c(N4CCOCC4)nc(N4CCOCC4)nc3c2)cc1)C(=O)O [Compound 7e, N6-((4-(2,4-Dimorpholinoquinazolin-7-yl)phenyl)carbamoyl)lysine] | 9.5 | 89 to 91 | 24 |  |  | 12 | 12 | 12 |  |  | 
O=C(Nc1ccc(F)cc1)Nc1ccc(-c2ccc3c(N4CCOCC4)nc(N4CCOCC4)nc3c2)cc1 [Compound 7g, 1-(4-(2,4-Dimorpholinoquinazolin-7-yl)phenyl)-3-(4-fluorophenyl)urea] | 4.9 |  | 14 |  |  | 25 | 6 | 25 |  |  | 
O=C(Nc1ccc(-c2ccc3c(N4CCOCC4)nc(N4CCOCC4)nc3c2)cc1)Nc1ccccn1 [Compound 7h, 1-(4-(2,4-Dimorpholinoquinazolin-7-yl)phenyl)-3-(pyridin-2-yl)urea] | 13 | 210 to 212 | 14 |  |  | 12 | 6 | 3 |  |  | 
Nc1ccc(-c2ccc3c(N4CCOCC4)nc(N4CCOCC4)nc3c2)cc1 [Compound 6, 4-(2,4-Dimorpholinoquinazolin-7-yl)aniline] |  | 191 to 193 |  |  |  |  |  |  |  |  | 
O=C(NCc1ccco1)Nc1ccc(-c2ccc3c(N4CCOCC4)nc(N4CCOCC4)nc3c2)cc1 [Compound 7a, 1-(4-(2,4-Dimorpholinoquinazolin-7-yl)phenyl)-3-(furan-2-ylmethyl)urea] | 6.6 | 184 to 186 | 6.7 |  |  |  |  |  |  |  | 
O=C(Nc1ccc(-c2ccc3c(N4CCOCC4)nc(N4CCOCC4)nc3c2)cc1)Nc1ccc([N+](=O)[O-])cc1 [Compound 7f, 1-(4-(2,4-Dimorpholinoquinazolin-7-yl)phenyl)-3-(4-nitrophenyl)urea] | 6.5 | 240 to 242 | 8.8 |  |  | 12 | 6 | 3 |  |  | 
COC[C@H]1OC(=O)c2coc3c2[C@@]1(C)C1=C(C3=O)[C@@H]2CCC(=O)[C@@]2(C)C[C@H]1OC(C)=O [wortmannin, reference compound] |  |  |  |  |  |  |  |  |  |  | neither affects PI3K/Akt/mTOR signaling pathway even at 500 nM

The next lines start with results.

IC50 [2] [µM] | melting point [°C] | IC50 [3] [µM] | IC50 [7] [µM] | SMILES | IC50 [1] [µM] | IC50 [4] [µM] | IC50 [5] [µM] | IC50 [6] [µM] | Concentration above which all cells died [8] | Concentration below which no changes in the cell cycle were found [8] | Effect on PI3K/Akt/mTOR signaling pathway [9]
6.1 | 228 to 230 | 11 |  | O=C(Nc1ccc(-c2ccc3c(N4CCOCC4)nc(N4CCOCC4)nc3c2)cc1)Nc1cccc2ccccc12 [Compound 7i, 1-(4-(2,4-Dimorpholinoquinazolin-7-yl)phenyl)-3-(naphthalen-1-yl)urea] |  | 6 | 6 | 6 |  |  | 
> 50 | 168 to 170 | > 50 |  | C#CCNC(=O)Nc1ccc(-c2ccc3c(N4CCOCC4)nc(N4CCOCC4)nc3c2)cc1 [Compound 7l, 1-(4-(2,4-Dimorpholinoquinazolin-7-yl)phenyl)-3-(prop-2-yn-1-yl)urea] |  | > 50 | 6 | 3 |  |  | 
11 | 109 to 111 | 17 |  | CCOC(=O)N1CCN(C(=O)Nc2ccc(-c3ccc4c(N5CCOCC5)nc(N5CCOCC5)nc4c3)cc2)CC1 [Compound 7k, Ethyl 4-((4-(2,4-Dimorpholinoquinazolin-7-yl)phenyl)carbamoyl)piperazine-1-carboxylate] |  | 25 | 3 | 6 |  |  | 
3.8 |  | 4.1 |  | COC(=O)c1ccc(NC(=O)Nc2ccc(-c3ccc4c(N5CCOCC5)nc(N5CCOCC5)nc4c3)cc2)cc1 [Compound 7j, Methyl 4-(3-(4-(2,4-Dimorpholinoquinazolin-7-yl)phenyl)ureido)benzoate] |  | 3 | 0.8 | 3 | higher than 10 μM | below 1 μM | 
